Like-named read-outs stand apart in the source and are kept apart here.
Key:
[1] = Laser flash photolysis: triplet excited state decay and quenching; format: physicochemical
Procedure: The 500 mJ/pulse laser output was attenuated yielding 10 mJ laser pulses of 6 ns in duration. Samples were prepared in acetonitrile. The final absorbance of the BODIPY dyes was 0.1. The concentration was kept low to avoid triplet-triplet annihilation. Each sample was de-oxygenated by purging with argon gas for at least 30 min. Quartz cells containing 10×10 mm path length were used. The decay of the BODIPYs was monitored between 420-440 and 520-550 nm (depending the BODIPY) following the laser excitation. Samples were irradiated with a total of 6 laser shots to acquire the temporal evolution of ΔOD.
A second layer of control was subsequently tested via LFP studies, to monitor the extent to which the trap segment deactivates the triplet excited state of the photosensitizes. […] The two quenchers emulate the trap segments utilized in 7 and 8, respectively.

[2] = Absorption and steady-state fluorescence, fluorescence quantum yield in acetonitrile; format: physicochemical
Procedure: Absorption spectra were recorded using a Hitachi U-2800 UV-vis-NIR spectrophotometer. Luminescence spectra were recorded using a PTI QuantaMaster spectrofluorimeter using 10×10 mm quartz cuvettes and corrected for detector sensitivity.
The steady-state fluorescence spectra were recorded between 500-800 nm (depending on each compound) upon exciting at the wavelength of the absorbance maxima. The excitation and emission slits were tuned according to the fluorescence quantum yield of each BODIPY (i.e. for compound 7 excitation slits were 5 nm and for compound 4 we used 2 nm). Fluorescence was recorded every 1 nm using 0.1 s integration time. For the Fluorescence lifetime measurements, the excitation rate was 10 MHz, and the detection frequency was less than 100 kHz. Photons were collected at the magic angle. The fluorescence decay traces were fit using FluoFit (Picoquant) software. For steady-state and time-resolved fluorescence measurements a quartz cuvette with a 10 mm path length was used and all the solutions were prepared in air equilibrated acetonitrile.
Quantum yields of fluorescence were measured using PM605 in acetonitrile as a reference. Absorption and emission spectra of PM605 and the dye of interest were measured in acetonitrile at five different concentrations. The integrated intensity versus absorbance were then plotted and fitted linearly. Relative quantum yields of fluorescence for the unknown with respect to the standard were obtained from equation 1, where φ, Δ, and n refer, respectively, to the quantum yield, the slope obtained from the above-mentioned plot, and the solvent refractive index for the unknown (x) or standard (st).

[3] = Time-resolved fluorescence (fluorescence lifetime, TCSPC); format: physicochemical; settings: acetonitrile, room temperature
Procedure: Fluorescence lifetime measurements were carried out using a Picoquant Fluotime 200 time correlated single photon counting (TCSPC) setup employing an LDH-P-C-470 picosecond diode laser (Picoquant) with an excitation wavelength at 466 nm as the excitation source. The laser was controlled by a PDL 800 B picosecond laser driver from Picoquant. ^1HNMR spectra were recorded on a Bruker AV 400 instrument at 400 MHz. ^13CNMR spectra were recorder on a Varian VNMRS 500 instrument at 125 MHz. ESI mass spectra were measured on a Bruker maXis impact. Laser Flash Photolysis (LFP) experiments were carried out in a commercially available Luzchem 212 LFP setup provided with a Tektronix TDS 2000 digitizer for signal capture. A Nd:Yag laser (Continuum model Surelite I-10 using a second harmonic generators, model number SL-SHG-T1) was used for excitation at a wavelength of 532 nm. Phosphorescence experiments were recorded using a Cary Eclipse Fluorescence Spectrophotometer. Singlet Oxygen phosphorescence was recorded with a Hamamatsu NIR detector (peltier cooled at −62.8° C. operating at 800 V, coupled to a grating monochromator) upon excitation with a 532 nm Nd:YAG laser. A customized Luzchem Research LFP-111 system was employed to collect and process the data. The steady-state fluorescence spectra were recorded between 500-800 nm (depending on each compound) upon exciting at the wavelength of the absorbance maxima. The excitation and emission slits were tuned according to the fluorescence quantum yield of each BODIPY (i.e. for compound 7 excitation slits were 5 nm and for compound 4 we used 2 nm). Fluorescence was recorded every 1 nm using 0.1 s integration time. For the Fluorescence lifetime measurements, the excitation rate was 10 MHz, and the detection frequency was less than 100 kHz. Photons were collected at the magic angle. The fluorescence decay traces were fit using FluoFit (Picoquant) software. For steady-state and time-resolved fluorescence measurements a quartz cuvette with a 10 mm path length was used and all the solutions were prepared in air equilibrated acetonitrile.

[4] = ^1O2 quantum yield, photooxidation of DMA (indirect method); format: physicochemical; settings: consumption of dimethylanthracene, Rose Bengal standard, air equilibrated acetonitrile
Procedure: Solutions of 9,10-dimethylanthracene (DMA, 50 μM) and photosensitizers (compound 3-10) in air equilibrated acetonitrile were irradiated in 10 mm path length quartz cell (3 ml) with a Nd:Yag laser exciting at 532 nm. Laser excitation was performed at 10 Hz, providing one laser output for every discharge of the flashlamp. An irradiation time of 1 s is equivalent to 10 laser pulses. The energy of each pulse was 10 mJ. The kinetics of DMA photooxidation were studied by following the decrease of the absorbance at λ=377 nm. The observed rate constant (kobs) was obtained by a linear least-squares fit of the semilogarithmic plot of ln [DMA]0/[DMA] (see FIG. 14). Quantum yields of ^1O2 production (φΔ^I) were calculated comparing the kobs=kq [^1O2] for the corresponding photosensitizer with that for Rose Bengal, which was used as a reference (φΔ=0.54).^1 Measurements of the sample and the reference under the same conditions afforded φΔ^I for compounds (3-10) by direct comparison of the slope in the linear region of the plots.
For the indirect detection of ^1O2, it is possible to determine the kq value considering that the production of ^1O2 is constant compare with the initial concentration of DMA. According to these, a pseudo first-order kinetic for this reaction is proposed (equations 2 to 5): […]
The conversion of DMA followed pseudo-first order kinetics with the different photosensitizers (see FIG. 14). From equation 5, it was possible to determine kobs and ^1O2.

[5] = ^1O2 quantum yield and lifetime, ^1O2 phosphorescence at 1270 nm (direct method); format: physicochemical
Procedure: The generation of singlet oxygen and its lifetime were determined from ^1O2 phosphorescence decay curves recorded at 1270 nm upon excitation with a 532 nm Nd:YAG laser. A total of 3 laser shots were applied to acquire a trace. […] Quantum yield of ^1O2 production (φΔ^D) were calculated comparing the intensity of ^1O2 phosphorescence at 1270 nm for the corresponding photosensitizer with that recorded for Rose Bengal (φΔ=0.54).^81

[6] = from reference 54 (1) or 31 (2); cited from earlier work
[7] = cited from earlier work; for abs λmax / em λmax / Φf (fluorescence quantum yield) / ε (extinction coefficient): acetonitrile, room temperature, from reference 31; for E00 (HOMO-LUMO gap): from reference 54 (1) or 31 (2)
[8] = from reference 54 (1) or 31 (2); cited from earlier work; remark: listed apart in the source
[9] = cited from earlier work; for E^oB^+·/B (reversible oxidation potential): from reference 54 (1) or 31 (2)
[10] = acetonitrile, room temperature; from reference 31; cited from earlier work
E. coli ATCC 25922 = experiment: Antibacterial photodynamic inactivation, regular vs hydrogen peroxide stressed bacteria (CFU counts); format: cell-based; settings: in the dark; 7 with or without H2O2
Procedure: The microorganism used for this study is E. coli ATCC 25922. Stock cultures were preserved at −70° C. using glycerol 10% (v/v) as the cryoprotectant, and the strain was grown in Luria Bertania broth (LB). Bacterial culture was prepared inoculating a single colony from a pure culture. After overnight incubation at 37° C. for 18 h, the culture reached a density of approximately 1×10^9 CFU/mL and it was diluted to 10^6 CFU/mL.
At the end of the irradiation time, 100 μL aliquots were placed in 96 wells from each tube and serially diluted 10-fold in PBS to obtain dilutions of 10^1 to 10^4 fold, in addition to the original concentration, on agar plates to determine CFU. Viability counts were performed at 0 and 1 hour in either dark or light conditions from each dilution, 10 μL aliquots were plated on LB agar. Plates were streaked in triplicate and incubated for 18 h at 37° C. Each experiment was performed at least three times on different days.
To stress the cells we utilized hydrogen peroxide, known to stimulate ROS production in Gram-negative cells.^79,80 We incubated bacteria from the E. coli strain (10^6 colony forming units (CFU)/mL) with 500 nM hydrogen peroxide for 2 hours at 37° C. Following precipitation and resuspension of this bacteria in media with no H2O2, we added compound 7. In parallel, compound 7 was also added to bacteria that were not exposed to H2O2.

[11] = Intermolecular quenching of ^1O2 phosphorescence by chromanol rings; format: physicochemical; settings: ^1O2 generated upon irradiation of compound 5, air equilibrated acetonitrile
Description: To test whether 7 is equally efficient at deactivating ^1O2 as α-tocopherol, we generated ^1O2 upon irradiation of compound 5 and monitored the ^1O2 phosphorescence lifetime in the presence of increasing amounts of either 7 or PMHC (an α-tocopherol analogue lacking the phytyl tail).

[12] = cited from earlier work; for overall singlet oxygen quenching rate constant kq: kq(physical)+kq(chemical), reference 74; for chemical quenching of ^1O2 / physical quenching of ^1O2: share of total quenching

CC1=C(I)C(C)=[N+]2C1=C(COC(=O)C1(C)CCc3c(C)c(O)c(C)c(C)c3O1)c1c(C)c(I)c(C)n1[B-]2(F)F (racemic) [Compound 8, 8-((±)-6-Hydroxy-2,5,7,8-tetramethylchromane-2-carbonyloxy)-2,6-diiodo-methyl-1,3,5,7-tetramethylpyrromethene Fluoroborate]
increase in kT upon covalent attachment of the chromanol ([1]; 8 compared to its precursor 5): 6 fold
kq (triplet quenching rate constant) Q = PMHC ([1]; Ar saturated acetonitrile): 5.90 ± 0.09 × 10^8 M^−1s^−1
kT (triplet decay rate constant) Air equilibrated ([1]; acetonitrile, air equilibrated): 4.55 ± 0.02 × 10^6 s^−1
kT (triplet decay rate constant) Argon Purged ([1]; acetonitrile, argon purged): 9.16 ± 0.05 × 10^4 s^−1
kq (triplet quenching rate constant) Q = ^3O2 ([1]; acetonitrile, calculated with oxygen solubility 2.42 mM): 1.88 ± 0.02 × 10^9 M^−1s^−1
drop in φf caused by the trap segment ([2]; 7 compared to reference 4, 8 compared to 5): ca. 2 fold
abs λmax ([2]; acetonitrile, room temperature): 552 nm
em λmax ([2]; acetonitrile, room temperature): 576 nm
Φf (fluorescence quantum yield) ([2]; acetonitrile, room temperature): 0.009 ± 0.002
ε (extinction coefficient) ([2]; acetonitrile, room temperature): 63000 M⁻¹ cm⁻¹
kdec (fluorescence decay rate constant) [3]: 555.6 ± 0.6 × 10^7 s^−1
knr (non-radiative decay rate constant, (1−φf)×kdec) [3]: 551.0 ± 0.5 × 10^7 s^−1
krad (radiative rate constant, φf×kdec) [3]: 5.0 ± 0.1 × 10^7 s^−1
ΦΔ^I (singlet oxygen quantum yield, indirect) [4]: 0.46 ± 0.03
φΔ relative to control compound 5 [5]: ca. ½
ΦΔ^D (singlet oxygen quantum yield, direct) ([5]; ^1O2 phosphorescence at 1270 nm, air equilibrated acetonitrile): 0.57 ± 0.02
^1O2 phosphorescence decay lifetime ([5]; upon photosensitization, air equilibrated acetonitrile): 70 μs

CC1=CC(C)=[N+]2C1=C(C)c1c(C)cc(C)n1[B-]2(F)F [Compound 1, 1,3,5,7,8-pentamethyl-Pyrromethene Fluoroborate]
ΔGeT (Singlet), Gibbs free energy for PeT [6]: −0.26 eV
abs λmax [7]: 491 nm
em λmax [7]: 498 nm
Φf (fluorescence quantum yield) [7]: 0.81 ± 0.02
ε (extinction coefficient) [7]: 97000 M⁻¹ cm⁻¹
E00 (HOMO-LUMO gap) [7]: 2.53 eV
εHOMO [8]: −5.36 ± 0.01 eV
εLUMO [8]: −2.31 ± 0.05 eV
E^oB^+·/B (reversible oxidation potential) [9]: 0.77
kdec (fluorescence decay rate constant) [10]: 17.8 ± 0.1 × 10^7 s^−1
knr (non-radiative decay rate constant) [10]: 3.3 ± 0.1 × 10^7 s^−1
krad (radiative rate constant) [10]: 14.4 ± 0.1 × 10^7 s^−1

CC(=O)OCC1=C2C(C)=CC(C)=[N+]2[B-](F)(F)n2c(C)cc(C)c21 [Compound 2, 8-Acetoxymethyl-1,3,5,7-tetramethyl Pyrromethene Fluoroborate]
ΔGeT (Singlet), Gibbs free energy for PeT [6]: −0.24 eV
abs λmax [7]: 515 nm
em λmax [7]: 530 nm
Φf (fluorescence quantum yield) [7]: 0.87 ± 0.02
ε (extinction coefficient) [7]: 81000 M⁻¹ cm⁻¹
E00 (HOMO-LUMO gap) [7]: 2.38 eV
εHOMO [8]: −5.49 ± 0.01 eV
εLUMO [8]: −2.61 ± 0.05 eV
E^opc (cathodic peak potential) ([9]; from reference 31): −1.44
E^oB^+·/B (reversible oxidation potential) [9]: 0.75
kdec (fluorescence decay rate constant) [10]: 15.0 ± 0.2 × 10^7 s^−1
knr (non-radiative decay rate constant) [10]: 2.0 ± 0.1 × 10^7 s^−1
krad (radiative rate constant) [10]: 13.1 ± 0.2 × 10^7 s^−1

OO [Compound H2O2, hydrogen peroxide, reference compound]
colony forming units, dark controls (E. coli ATCC 25922): no effect in the CFU

Cc1c(C)c2c(c(C)c1O)CCC(C)(C)O2 [PMHC, 2,2,5,7,8-pentamethyl-6-hydroxy-chroman]
singlet oxygen quenching rate constant kq [11]: 4e+08 M⁻¹ s⁻¹
overall singlet oxygen quenching rate constant kq [12]: 1.96e+08 M⁻¹ s⁻¹
chemical quenching of ^1O2 [12]: 5%
physical quenching of ^1O2 [12]: 95%

Cc1c(C)c2c(c(C)c1O)CC[C@@](C)(CCC[C@H](C)CCC[C@H](C)CCCC(C)C)O2 [α-tocopherol]
overall singlet oxygen quenching rate constant kq [12]: 2.06e+08 M⁻¹ s⁻¹
chemical quenching of ^1O2 [12]: 7%
physical quenching of ^1O2 [12]: 93%
